Measured values reported in patent US10023836B2, “Medium for yeasts” (YAMAGUCHI UNIVERSITY, priority 2012, dated 2018).
Like-named read-outs stand apart in the source and are kept apart here.

What was measured:
[1] = tested on: RAK3599 strain; test: Vitamin and FeCl3 concentration in AKD′ culture medium (FIGS. 22 to 28); assay type: cell-based, Saccharomyces cerevisiae
Experimental: (§1) In a case where no special provisions are made, a procedure for a cultivation experiment using the culture medium to be investigated for proliferation was such that a yeast undergoing investigation was pre-cultured in a YPD liquid culture medium at 28° C. for 24 hours, after which the yeast was adjusted such that OD600=20. […] In addition, OD600 was measured every 15 minutes by a spectrophotometer (Cell density meter co8000, WPA). Hereafter, data is represented by graphs for a case using the automatic spectrophotometer; however, these graphs are primarily used to compare the slope of logarithmic growth phase proliferation curves for each culture medium, and because OD600 is measured without dilution, values where OD600=3 to 3.5 or more may be incorrect.
Pyridoxine concentration in the AKD′ culture medium was adjusted to 0, 0.004, 0.04, 0.4, 4, and 40 μg/mL, respectively, and proliferation of the RAK3599 strain was investigated.
Pantothenic acid concentration in the AKD′ culture medium was adjusted to 0, 0.004, 0.04, 0.4, 4, and 40 μg/mL, respectively, and proliferation of the RAK3599 strain was investigated.
Thiamine concentration in the AKD′ culture medium was adjusted to 0, 0.004, 0.04, 0.4, 4, and 40 μg/mL, respectively, and proliferation of the RAK3599 strain was investigated.
Nicotinic acid concentration in the AKD′ culture medium was adjusted to 0, 0.004, 0.04, 0.4, 4, and 40 μg/mL, respectively, and proliferation of the RAK3599 strain was investigated.
Myo-inositol concentration in the AKD′ culture medium was adjusted to 0, 0.02 μg/mL, 0.2 μg/mL, 2 μg/mL, 20 μg/mL, and 200 μg/mL, respectively, and proliferation of the RAK 3599 strain was investigated.
FeCl3 concentration in the AKD′ culture medium was adjusted to 0, 0.002, 0.02, 0.2, 2, and 20 μg/mL, respectively, and proliferation of the RAK3599 strain was investigated.

[2] = tested on: RAK2683 yeast strain; test: Investigation of nitrogen source used singly in MM culture medium instead of ammonium sulfate (Table 4); assay type: cell-based, Saccharomyces cerevisiae; conditions: Table 4 conditions
[3] = tested on: Saccharomyces cerevisiae RAK3599 strain; test: SynAA culture medium: elimination of single components and inorganic ion concentration; assay type: cell-based; conditions: for OD600 for 1/100 solutions after 42 hours: SynAA culture medium; for essentiality for increasing proliferation: one component of the vitamin mix eliminated from SynAA culture medium
Experimental: as §1
Culture mediums were prepared in which one component each of the components configuring the inorganic ion mix was eliminated from the SynAA culture medium, and OD600 was measured. […] Thereafter, an investigation specifically of inorganic ion concentration was conducted. […] An investigation was conducted using RAK3599 strain (hereafter, simply referred to as “RAK3599 strain”), which is a strain of Saccharomyces cerevisiae not having a particular nutritional requirement. Where no subsequent special provisions were made, proliferation was investigated by performing roller tube culture for an appropriate amount of time at 28° C. and measuring OD600.
MgSO4 concentration in the SynAA culture mediums was adjusted to 0%, 0.0001%, 0.001%, 0.01%, 0.1%, and 1%, respectively, and proliferation of the RAK3599 strain was investigated. […] Next, MgCl2 concentration in the SynAA culture mediums was adjusted to 0.001%, 0.01%, 0.1%, and 1%, respectively, and proliferation of the RAK3599 strain was investigated.
A culture medium was prepared in which one component each of the components configuring the vitamin mix was eliminated from the SynAA culture medium, with the SynAA culture medium as the control, and proliferation of the RAK3599 strain was investigated.

[4] = tested on: RAK3599 strain; test: Investigation with AID and aY-AID culture medium (FIGS. 29 to 39); assay type: cell-based, Saccharomyces cerevisiae; conditions: for effect on proliferation when added at high concentrations: up to 1% or up to 0.2500%; for preferred concentration / content: AID or aY-AID culture medium
Experimental: As shown in the following, an investigation was conducted into concentrations of each amino acid and a substitution potential of pantothenic acid for the amino acid in the AID culture medium. A suitable YPD culture medium was used as a control.
Next, the amino acids asparagine, isoleucine, phenylalanine, and valine were each adjusted to a culture medium additive concentration of […], 0.0312%, 0.0625%, 0.1250%, and 0.2500%, and OD600 was measured after 24 hours.
Isoleucine concentration in the aY-AID culture medium was adjusted to 0, 0.01 mg/mL, 0.1 mg/mL, 0.5 mg/mL, and 1 mg/mL, respectively, and proliferation of the RAK3599 strain was investigated.
Phenylalanine concentration in the aY-AID culture medium was adjusted to 0, 0.01, 0.1, 0.5, and 1 mg/mL, respectively, and proliferation of the RAK3599 strain was investigated.
Valine concentration in the aY-AID culture medium was adjusted to 0, 0.01, 0.1, 0.5, and 1 mg/mL, respectively, and proliferation of the RAK3599 strain was investigated.
Serine concentration in the AID culture medium was adjusted to 0, 0.01 mg/mL, 0.1 mg/mL, 0.5 mg/mL, and 1 mg/mL, respectively, and proliferation of the RAK3599 strain was investigated.
Threonine concentration in the AID culture medium was adjusted to 0, 0.01, 0.1, 0.5, and 1 mg/mL, respectively, and proliferation of the RAK3599 strain was investigated.
Asparagine concentration in the AID culture medium was adjusted to 0, 0.01, 0.1, 0.5, and 1 mg/mL, respectively, and proliferation of the RAK3599 strain was investigated.
An investigation was conducted into vitamins contained in the AID culture medium. […]

[5] = aY-AID culture medium, concentration of the substance 0
[6] = aY-AID culture medium, concentration of the substance 0.01 mg/mL
[7] = aY-AID culture medium, concentration of the substance 0.1 mg/mL
[8] = aY-AID culture medium, concentration of the substance 0.5 mg/mL
[9] = aY-AID culture medium, concentration of the substance 1 mg/mL

O[C@H]1[C@H](O)[C@@H](O)[C@H](O)[C@@H](O)[C@H]1O [inositol, myo-inositol]
proliferation versus inositol content ([1]; AKD′ culture medium, myo-inositol 0 to 200 μg/mL): Proliferation increased in proportion to an increase in inositol content
proliferation compared with AKD′ ([1]; inositol added at 10%): below that of AKD′

N[C@@H](CCC(=O)[O-])C(=O)[O-].O.[Na+].[Na+] [Glutamic acid, L-Glutamic acid sodium salt hydrate]
proliferation when added singly as nitrogen source [2]: favorable proliferation

O.O.O.O.O.O.O.O=S(=O)([O-])[O-].[Mg+2] [MgSO4, magnesium sulfate-heptahydrate]
OD600 for 1/100 solutions after 42 hours ([3]; concentration of the substance adjusted to 0%): 0.02
OD600 for 1/100 solutions after 42 hours ([3]; concentration of the substance adjusted to 0.0001%): 0.04
OD600 for 1/100 solutions after 42 hours ([3]; concentration of the substance adjusted to 0.001%): 0.09
OD600 for 1/100 solutions after 42 hours ([3]; concentration of the substance adjusted to 0.01%): 0.12
OD600 for 1/100 solutions after 42 hours ([3]; concentration of the substance adjusted to 0.1%): 0.13
OD600 for 1/100 solutions after 42 hours ([3]; concentration of the substance adjusted to 1%): 0.13
proliferation when the component is not added ([3]; one component of the inorganic ion mix eliminated from SynAA culture medium): extremely low proliferation

NC(=O)C[C@H](N)C(=O)O.O [Asparagine, L-Asparagine monohydrate]
OD600 after 24 hours ([4]; AID culture medium, asparagine 0 mg/mL): 15
OD600 after 24 hours ([4]; AID culture medium, asparagine 0.01 mg/mL): 16
OD600 after 24 hours ([4]; AID culture medium, asparagine 0.1 mg/mL): 16
OD600 after 24 hours ([4]; AID culture medium, asparagine 0.5 mg/mL): 17
OD600 after 24 hours ([4]; AID culture medium, asparagine 1 mg/mL): 16
effect on proliferation when added at high concentrations ([4]; AID culture medium): proliferation was confirmed to be inhibited
preferred concentration / content [4]: around 0.5 g/L

CC(C)(CO)[C@@H](O)C(=O)NCCC(=O)O [pantothenic acid]
essentiality for increasing proliferation [3]: essential components
concentration at which proliferation was inhibited ([1]; AKD′ culture medium): 40 µg/mL
preferred concentration ([1]; AKD′ culture medium): around 4000 μg/L
proliferation at a content of 0 ([1]; AKD′ culture medium without the substance): no proliferation whatsoever

CC(=O)N[C@@H](Cc1ccc(O)cc1)C(=O)O [acetyl tyrosine, N-acetyl tyrosine]
OD600 after 24 hours ([4]; AID culture medium, acetyl tyrosine 0 mg/mL): 13
OD600 after 24 hours ([4]; AID culture medium, acetyl tyrosine 0.01 mg/mL): 14
OD600 after 24 hours ([4]; AID culture medium, acetyl tyrosine 0.1 mg/mL): 15
OD600 after 24 hours ([4]; AID culture medium, acetyl tyrosine 0.5 mg/mL): 14
OD600 after 24 hours ([4]; AID culture medium, acetyl tyrosine 1 mg/mL): 15
OD600 after 24 hours ([4]; AID culture medium, acetyl tyrosine 2 mg/mL): 18
preferred concentration / content [4]: about 1 g/L

Nc1ccc(C(=O)O)cc1 [para-aminobenzoic acid]
effect on proliferation ([4]; vitamins contained in the AID culture medium (FIG. 38)): no effect to particularly increase proliferation

NCCC(=O)O [β-alanine]
substitution potential of pantothenic acid ([4]; AID culture medium (FIG. 39A)): confirmed to be substituted with pantothenic acid
concentration capable of substitution with pantothenic acid ([4]; AID culture medium (FIG. 39B)): ≥ 0.4 µg/mL

[Cl][Fe]([Cl])[Cl] [FeCl3, Anhydrous ferric (III) chloride]
preferred concentration ([1]; AKD′ culture medium): around 4000 μg/L
OD600 after 24 hours ([1]; AKD′ culture medium, FeCl3 0 μg/mL): 10
OD600 after 24 hours ([1]; AKD′ culture medium, FeCl3 0.002 μg/mL): 9
OD600 after 24 hours ([1]; AKD′ culture medium, FeCl3 0.02 μg/mL): 11
OD600 after 24 hours ([1]; AKD′ culture medium, FeCl3 0.2 μg/mL): 10
OD600 after 24 hours ([1]; AKD′ culture medium, FeCl3 2 μg/mL): 13
OD600 after 24 hours ([1]; AKD′ culture medium, FeCl3 20 μg/mL): 14

O=P([O-])(O)O.[K+] [KH2PO4, potassium dihydrogen phosphate]
proliferation when the component is not added [3]: extremely low proliferation

O=P([O-])(O)O.[Na+] [NaH2PO4]
proliferation ([3]; 0.1% added to SynAA culture medium instead of KH2PO4, after 20 hours): proliferation had not occurred

OB(O)O [boric acid]
essentiality for increasing proliferation [3]: not be essential components

[Cl-].[K+] [KCl, potassium chloride]
proliferation ([3]; 0.1% added after 20 hours to SynAA culture medium with NaH2PO4 instead of KH2PO4): proliferation began

N[C@@H](Cc1ccccc1)C(=O)O [Phenylalanine, L-Phenylalanine]
effect on proliferation when added at high concentrations ([4]; AID culture medium): a positive influence was imparted to proliferation
preferred concentration / content [4]: around 1 g/L
OD600 after 24 hours [4, 5]: 17
OD600 after 24 hours [4, 6]: 17
OD600 after 24 hours [4, 7]: 19
OD600 after 24 hours [4, 8]: 19
OD600 after 24 hours [4, 9]: 19

Cc1cc2nc3c(=O)[nH]c(=O)nc-3n(C[C@H](O)[C@H](O)[C@H](O)CO)c2cc1C [riboflavin]
essentiality for increasing proliferation [3]: not be essential components

CC[C@H](C)[C@H](N)C(=O)O [Isoleucine, L-Isoleucine]
effect on proliferation when added at high concentrations ([4]; AID culture medium): a positive influence was imparted to proliferation
preferred concentration / content [4]: around 1 g/L
OD600 after 24 hours [4, 5]: 16
OD600 after 24 hours [4, 6]: 17
OD600 after 24 hours [4, 7]: 16
OD600 after 24 hours [4, 8]: 17
OD600 after 24 hours [4, 9]: 19

Nc1nc2ncc(CNc3ccc(C(=O)N[C@@H](CCC(=O)O)C(=O)O)cc3)nc2c(=O)[nH]1 [folic acid]
essentiality for increasing proliferation [3]: not be essential components

C[C@H](N)C(=O)O [Alanine, L-Alanine]
effect on proliferation when added at high concentrations ([4]; AID culture medium): a positive influence was imparted to proliferation
content at which the slope of the proliferation curve is greatest ([4]; aY-AID culture medium): around 1 mg/mL
OD600 after 24 hours ([4]; aY-AID culture medium, alanine 0 mg/mL): 17
OD600 after 24 hours ([4]; aY-AID culture medium, alanine 0.1 mg/mL): 18
OD600 after 24 hours ([4]; aY-AID culture medium, alanine 1 mg/mL): 18
OD600 after 24 hours ([4]; aY-AID culture medium, alanine 5 mg/mL): 17
OD600 after 24 hours ([4]; aY-AID culture medium, alanine 10 mg/mL): 18

N[C@@H](CO)C(=O)O [Serine, L-Serine]
content at which proliferation particularly increased ([4]; AID culture medium): around 0.5 mg/mL
effect on proliferation when added at high concentrations ([4]; AID culture medium): a positive influence was imparted to proliferation
preferred concentration / content [4]: around 0.5 g/L

CC(C)[C@H](N)C(=O)O [Valine, L-VALINE]
effect on proliferation when added at high concentrations ([4]; AID culture medium): a positive influence was imparted to proliferation
preferred concentration / content [4]: around 1 g/L
OD600 after 24 hours [4, 5]: 16
OD600 after 24 hours [4, 6]: 15
OD600 after 24 hours [4, 7]: 15
OD600 after 24 hours [4, 8]: 16
OD600 after 24 hours [4, 9]: 16
